Source: ChEMBL document CHEMBL5370557, “Structure-based discovery of IHMT-IDH1-053 as a potent irreversible IDH1 mutant selective inhibitor” (Eur J Med Chem, 2023)

Tests used:
[1] = target: T1, Isocitrate dehydrogenase [NADP] cytoplasmic (Homo sapiens, UniProt O75874, R132H); test: Inhibition of IDH1 R132H mutant (unknown origin) expressed in HEK293T cells assessed as inhibition of 2-HG generation measured after 48 hrs by LC-MS/MS analysis; assay type: cell-based
[2] = target: T1, Isocitrate dehydrogenase [NADP] cytoplasmic; test: Inhibition of IDH1 R132H mutant (unknown origin) expressed in Escherichia coli BL21 (DE3) assessed as NADPH consumption using alpha-KG as substrate measured after 60 mins

T1 sequence (O75874 2-414 R132H limits assumed): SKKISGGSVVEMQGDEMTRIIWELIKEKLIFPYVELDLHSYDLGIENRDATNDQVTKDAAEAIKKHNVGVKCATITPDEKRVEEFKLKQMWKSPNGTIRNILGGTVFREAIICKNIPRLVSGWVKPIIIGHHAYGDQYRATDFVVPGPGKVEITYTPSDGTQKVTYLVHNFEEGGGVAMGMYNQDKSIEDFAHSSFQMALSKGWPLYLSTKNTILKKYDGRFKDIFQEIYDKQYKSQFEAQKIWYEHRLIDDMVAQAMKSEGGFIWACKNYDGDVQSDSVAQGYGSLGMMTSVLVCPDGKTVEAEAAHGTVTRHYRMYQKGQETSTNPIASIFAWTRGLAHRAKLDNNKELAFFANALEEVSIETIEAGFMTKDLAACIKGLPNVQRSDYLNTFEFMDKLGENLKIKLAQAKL

SMILES | IC50 [1] [nM] | IC50 [2] [nM]
C=CS(=O)(=O)Nc1ccc(Nc2ccc([C@H](C)Nc3ncc(F)c(N4C(=O)OC[C@@H]4C(C)C)n3)cc2)cc1OC | 4750 | 55
C=CC(=O)Nc1ccc(Nc2ccc([C@H](C)Nc3ccc(C#N)cn3)cc2)cc1N(C)C |  | 6130
CCC(=O)NC1CCN(c2ccc([C@H](C)Nc3ncc(F)c(N4C(=O)OC[C@@H]4C(C)C)n3)cc2)CC1 |  | 198
C=CC(=O)Nc1ccc(Nc2ccc([C@H](C)Nc3nccc(N4C(=O)OC[C@@H]4C(C)C)n3)cc2)cc1N1CCN(CC)CC1 |  | 898
C=CC(=O)Nc1cc(Nc2ccc([C@H](C)Nc3ncc(F)c(N4C(=O)OC[C@@H]4C(C)C)n3)cc2)ccc1N(C)C | 114 | 155
C=CS(=O)(=O)N1CCC(Nc2ccc([C@H](C)Nc3ncc(F)c(N4C(=O)OC[C@@H]4C(C)C)n3)cc2)CC1 | 129 | 42
C=CS(=O)(=O)NC1CCN(c2ccc([C@H](C)Nc3ncc(C#N)cn3)cc2)CC1 |  | 4490
CC(C)[C@H]1COC(=O)N1c1nc(N[C@@H](C)c2ccc(N3CCC(NC(=O)CCl)CC3)cc2)ncc1F |  | 87
C=CC(=O)NC1CCN(c2ccc([C@H](C)Nc3ncc(F)c(N4C(=O)OC[C@@H]4C(C)C)n3)cc2)CC1 | 462 | 187
C=CS(=O)(=O)Nc1cc(Nc2ccc([C@H](C)Nc3ncc(F)c(N4C(=O)OC[C@@H]4C(C)C)n3)cc2)ccc1N(C)C | 367 | 151
C=CC(=O)NC1CCCN(c2ccc([C@H](C)Nc3ncc(F)c(N4C(=O)OC[C@@H]4C(C)C)n3)cc2)C1 (stereo not given in full) | 295 | 440

More lines, now with the values ahead:

IC50 [1] [nM] | IC50 [2] [nM] | SMILES
1500 | 87 | C=CS(=O)(=O)Nc1ccc(Nc2ccc([C@H](C)Nc3ncc(F)c(N4C(=O)OC[C@@H]4C(C)C)n3)cc2)cc1N1CCOCC1
866 | 88 | C=CS(=O)(=O)Nc1ccc(Nc2ccc([C@H](C)Nc3ncc(F)c(N4C(=O)OC[C@@H]4C(C)C)n3)cc2)cc1C
 | 741 | CCC(=O)Nc1cc(-c2ccc([C@H](C)Nc3ncc(F)c(N4C(=O)OC[C@@H]4C(C)C)n3)cc2)ccc1N(C)C
 | 932 | CCC(=O)Nc1cc(Nc2ccc([C@H](C)Nc3ncc(F)c(N4C(=O)OC[C@@H]4C(C)C)n3)cc2)ccc1N(C)C
288 | 205 | C=CC(=O)Nc1cc(Nc2ccc([C@H](C)Nc3ncc(F)c(N4C(=O)OC[C@@H]4C(C)C)n3)cc2)ccc1N1CCOCC1
 | 594 | CCS(=O)(=O)N1CCC(Nc2ccc([C@H](C)Nc3nccc(N4C(=O)OC[C@@H]4C(C)C)n3)cc2)CC1
10000 | > 10000 | CCC(=O)Nc1ccc(Nc2ccc([C@H](C)Nc3ncc(F)c(N4C(=O)OC[C@@H]4C(C)C)n3)cc2)cc1N1CCOCC1
 | 6320 | C=CS(=O)(=O)Nc1ccc(Nc2ccc([C@H](C)Nc3ccc(C#N)cn3)cc2)cc1N(C)C
 | 670 | CCC(=O)NC1CCCN(c2ccc([C@H](C)Nc3ncc(F)c(N4C(=O)OC[C@@H]4C(C)C)n3)cc2)C1 (stereo not given in full)
